Test results taken from the NIST ThermoML archive (doi:10.1021/acs.jced.7b00106).
“And” between values parts separate entries of the source, which are not always exact repeats. Equal entries are not always repeated.

Conditions: Hot wire method

FC(F)(F)/C=C/Cl [(E)-1-chloro-3,3,3-trifluoroprop-1-ene]
Conditions | thermal conductivity
362.89 K, 26388 kPa, Liquid | 0.07962 W/m/K
362.94 K, 8395 kPa, Liquid | 0.06981 W/m/K
362.97 K, 8410 kPa, Liquid | 0.06989 W/m/K
363.01 K, 5513 kPa, Liquid | 0.06793 W/m/K
363.02 K, 5522 kPa, Liquid | 0.06801 W/m/K
363.04 K, 15375 kPa, Liquid | 0.07401 W/m/K
363.05 K, 588 kPa, Fluid (supercritical or subcritical phases) | 0.01642 W/m/K
363.05 K, 3030 kPa, Liquid | 0.06616 W/m/K
363.06 K, 3018 kPa, Liquid | 0.06615 W/m/K
363.06 K, 18623 kPa, Liquid | 0.07592 W/m/K
363.07 K, 781 kPa, Liquid | 0.06438 W/m/K
363.07 K, 11657 kPa, Liquid | 0.07182 W/m/K
363.07 K, 11679 kPa, Liquid | 0.07186 W/m/K
363.07 K, 15350 kPa, Liquid | 0.07393 W/m/K
363.07 K, 18631 kPa, Liquid | 0.07609 W/m/K
363.08 K, 794 kPa, Liquid | 0.06441 W/m/K
363.17 K, 485 kPa, Fluid (supercritical or subcritical phases) | 0.01636 W/m/K
363.25 K, 8386 kPa, Liquid | 0.0699 W/m/K
363.25 K, 8410 kPa, Liquid | 0.06983 W/m/K
363.28 K, 18567 kPa, Liquid | 0.07546 W/m/K
363.3 K, 5515 kPa, Liquid | 0.0679 W/m/K
363.3 K, 15333 kPa, Liquid | 0.0739 W/m/K
363.3 K, 18619 kPa, Liquid | 0.07574 W/m/K
363.31 K, 369 kPa, Fluid (supercritical or subcritical phases) | 0.01625 W/m/K
363.31 K, 5517 kPa, Liquid | 0.06789 W/m/K
363.32 K, 15362 kPa, Liquid | 0.07394 W/m/K
363.34 K, 11659 kPa, Liquid | 0.07179 W/m/K
363.35 K, 3013 kPa, Liquid | 0.06606 W/m/K
363.35 K, 11674 kPa, Liquid | 0.07181 W/m/K
363.36 K, 3021 kPa, Liquid | 0.06613 W/m/K
363.38 K, 789 kPa, Liquid | 0.06433 W/m/K
363.39 K, 791 kPa, Liquid | 0.06436 W/m/K
363.56 K, 18588 kPa, Liquid | 0.07568 W/m/K
363.56 K, 18589 kPa, Liquid | 0.07561 W/m/K
363.85 K, 18555 kPa, Liquid | 0.07553 W/m/K
363.86 K, 18574 kPa, Liquid | 0.07558 W/m/K
381.79 K, 728 kPa, Fluid (supercritical or subcritical phases) | 0.01756 W/m/K
381.91 K, 529 kPa, Fluid (supercritical or subcritical phases) | 0.01757 W/m/K
381.98 K, 885 kPa, Fluid (supercritical or subcritical phases) | 0.0177 W/m/K
381.99 K, 883 kPa, Fluid (supercritical or subcritical phases) | 0.01771 W/m/K
382.06 K, 727 kPa, Fluid (supercritical or subcritical phases) | 0.0176 W/m/K
382.19 K, 530 kPa, Fluid (supercritical or subcritical phases) | 0.01766 W/m/K
382.26 K, 884 kPa, Fluid (supercritical or subcritical phases) | 0.01776 W/m/K
382.27 K, 885 kPa, Fluid (supercritical or subcritical phases) | 0.01778 W/m/K
382.29 K, 1304 kPa, Liquid | 0.05933 W/m/K
382.3 K, 1303 kPa, Liquid | 0.0594 W/m/K
382.3 K, 7889 kPa, Liquid | 0.06498 W/m/K
382.3 K, 7898 kPa, Liquid | 0.065 W/m/K
382.32 K, 1195 kPa, Fluid (supercritical or subcritical phases) | 0.01851 W/m/K
382.32 K, 1196 kPa, Fluid (supercritical or subcritical phases) | 0.01849 W/m/K
382.35 K, 727 kPa, Fluid (supercritical or subcritical phases) | 0.01767 W/m/K
382.35 K, 20108 kPa, Liquid | 0.07266 W/m/K
382.36 K, 20093 kPa, Liquid | 0.07261 W/m/K
382.37 K, 6276 kPa, Liquid | 0.06375 W/m/K
382.38 K, 6283 kPa, Liquid | 0.06377 W/m/K
382.38 K, 35584 kPa, Liquid | 0.0803 W/m/K
382.39 K, 35567 kPa, Liquid | 0.08024 W/m/K
382.4 K, 16804 kPa, Liquid | 0.07075 W/m/K
382.41 K, 16825 kPa, Liquid | 0.07099 W/m/K
382.42 K, 33043 kPa, Liquid | 0.07905 W/m/K
382.42 K, 33046 kPa, Liquid | 0.07909 W/m/K
382.44 K, 13721 kPa, Liquid | 0.06888 W/m/K
382.45 K, 13744 kPa, Liquid | 0.06889 W/m/K
382.46 K, 28331 kPa, Liquid | 0.07696 W/m/K
382.47 K, 4293 kPa, Liquid | 0.06211 W/m/K
382.47 K, 28334 kPa, Liquid | 0.07681 W/m/K
382.48 K, 1001 kPa, Fluid (supercritical or subcritical phases) | 0.01789 W/m/K
382.48 K, 4301 kPa, Liquid | 0.06219 W/m/K
382.49 K, 529 kPa, Fluid (supercritical or subcritical phases) | 0.01769 W/m/K
382.49 K, 1000 kPa, Fluid (supercritical or subcritical phases) | 0.01794 W/m/K
382.5 K, 2615 kPa, Liquid | 0.06083 W/m/K
382.51 K, 2614 kPa, Liquid | 0.06065 W/m/K
382.51 K, 10968 kPa, Liquid | 0.06711 W/m/K
382.51 K, 10976 kPa, Liquid | 0.0674 W/m/K
382.53 K, 24122 kPa, Liquid | 0.07474 W/m/K
382.54 K, 24143 kPa, Liquid | 0.07473 W/m/K
382.55 K, 1308 kPa, Liquid | 0.0594 W/m/K
382.56 K, 884 kPa, Fluid (supercritical or subcritical phases) | 0.01781 W/m/K and 0.01779 W/m/K
382.56 K, 1302 kPa, Liquid | 0.05937 W/m/K
382.56 K, 7890 kPa, Liquid | 0.06497 W/m/K
382.56 K, 7897 kPa, Liquid | 0.06497 W/m/K
382.56 K, 8382 kPa, Liquid | 0.06533 W/m/K
382.56 K, 8389 kPa, Liquid | 0.06536 W/m/K
382.58 K, 20086 kPa, Liquid | 0.07258 W/m/K
382.58 K, 20109 kPa, Liquid | 0.07262 W/m/K
382.6 K, 1196 kPa, Fluid (supercritical or subcritical phases) | 0.01858 W/m/K
382.61 K, 1196 kPa, Fluid (supercritical or subcritical phases) | 0.01858 W/m/K
382.62 K, 35572 kPa, Liquid | 0.07991 W/m/K
382.63 K, 6276 kPa, Liquid | 0.06372 W/m/K
382.63 K, 35594 kPa, Liquid | 0.08017 W/m/K
382.64 K, 727 kPa, Fluid (supercritical or subcritical phases) | 0.01771 W/m/K
382.64 K, 6276 kPa, Liquid | 0.06375 W/m/K
382.65 K, 16810 kPa, Liquid | 0.07072 W/m/K
382.65 K, 33011 kPa, Liquid | 0.079 W/m/K
382.66 K, 16821 kPa, Liquid | 0.07073 W/m/K
382.66 K, 33037 kPa, Liquid | 0.07905 W/m/K
382.7 K, 13733 kPa, Liquid | 0.0689 W/m/K
382.71 K, 13730 kPa, Liquid | 0.06888 W/m/K
382.71 K, 28321 kPa, Liquid | 0.07678 W/m/K
382.71 K, 28350 kPa, Liquid | 0.07685 W/m/K
382.72 K, 4298 kPa, Liquid | 0.06213 W/m/K
382.74 K, 4301 kPa, Liquid | 0.06214 W/m/K
382.77 K, 2602 kPa, Liquid | 0.06057 W/m/K
382.77 K, 2621 kPa, Liquid | 0.06066 W/m/K
382.77 K, 10954 kPa, Liquid | 0.06703 W/m/K
382.77 K, 24142 kPa, Liquid | 0.07452 W/m/K
382.78 K, 1001 kPa, Fluid (supercritical or subcritical phases) | 0.01826 W/m/K
382.78 K, 24124 kPa, Liquid | 0.07466 W/m/K
382.79 K, 1000 kPa, Fluid (supercritical or subcritical phases) | 0.0181 W/m/K
382.79 K, 10954 kPa, Liquid | 0.06707 W/m/K
382.81 K, 530 kPa, Fluid (supercritical or subcritical phases) | 0.01767 W/m/K
382.82 K, 7886 kPa, Liquid | 0.06511 W/m/K
382.83 K, 1306 kPa, Liquid | 0.05933 W/m/K
382.83 K, 8368 kPa, Liquid | 0.06524 W/m/K
382.83 K, 8383 kPa, Liquid | 0.06552 W/m/K
382.84 K, 1310 kPa, Liquid | 0.05941 W/m/K
382.84 K, 7894 kPa, Liquid | 0.06495 W/m/K
382.84 K, 20089 kPa, Liquid | 0.07256 W/m/K
382.85 K, 20100 kPa, Liquid | 0.07257 W/m/K
382.87 K, 883 kPa, Fluid (supercritical or subcritical phases) | 0.01794 W/m/K
382.87 K, 885 kPa, Fluid (supercritical or subcritical phases) | 0.01792 W/m/K
382.87 K, 35575 kPa, Liquid | 0.08013 W/m/K
382.87 K, 35578 kPa, Liquid | 0.08012 W/m/K
382.91 K, 1197 kPa, Fluid (supercritical or subcritical phases) | 0.01873 W/m/K
382.91 K, 6263 kPa, Liquid | 0.06365 W/m/K
382.91 K, 6280 kPa, Liquid | 0.06372 W/m/K
382.91 K, 33006 kPa, Liquid | 0.07896 W/m/K
382.91 K, 33028 kPa, Liquid | 0.07899 W/m/K
382.92 K, 16811 kPa, Liquid | 0.07071 W/m/K
382.92 K, 16817 kPa, Liquid | 0.0707 W/m/K
382.96 K, 28308 kPa, Liquid | 0.07685 W/m/K
382.97 K, 727 kPa, Fluid (supercritical or subcritical phases) | 0.01778 W/m/K
382.97 K, 28333 kPa, Liquid | 0.07679 W/m/K
382.98 K, 13709 kPa, Liquid | 0.06879 W/m/K
382.98 K, 13730 kPa, Liquid | 0.06887 W/m/K
383 K, 4290 kPa, Liquid | 0.06207 W/m/K
383.01 K, 4292 kPa, Liquid | 0.0621 W/m/K
383.03 K, 24102 kPa, Liquid | 0.07464 W/m/K
383.04 K, 24119 kPa, Liquid | 0.07466 W/m/K
383.05 K, 10954 kPa, Liquid | 0.06701 W/m/K
383.06 K, 2617 kPa, Liquid | 0.06075 W/m/K
383.06 K, 10970 kPa, Liquid | 0.06706 W/m/K
383.07 K, 2612 kPa, Liquid | 0.06066 W/m/K
383.08 K, 1001 kPa, Fluid (supercritical or subcritical phases) | 0.01823 W/m/K
383.08 K, 1002 kPa, Fluid (supercritical or subcritical phases) | 0.01821 W/m/K
